Data on 3 compounds can be found in US9226937B2 (priority 2011, dated 2016).

One assay concerns rhabdomyosarcoma cells. The conditions noted are these: low dosage; cited from earlier work.
A further assay relates to fibrosarcoma cells. As to conditions: cited from earlier work.
Another assay concerns injected tumors. As to conditions: mice with injected tumors; cited from earlier work.
A further assay concerns the target T1, SIRT1 (Homo sapiens, UniProt Q96EB6).
T1 construct: purchased Biomol Research Laboratories, Inc. AK-555
T1 sequence (Q96EB6 1-747): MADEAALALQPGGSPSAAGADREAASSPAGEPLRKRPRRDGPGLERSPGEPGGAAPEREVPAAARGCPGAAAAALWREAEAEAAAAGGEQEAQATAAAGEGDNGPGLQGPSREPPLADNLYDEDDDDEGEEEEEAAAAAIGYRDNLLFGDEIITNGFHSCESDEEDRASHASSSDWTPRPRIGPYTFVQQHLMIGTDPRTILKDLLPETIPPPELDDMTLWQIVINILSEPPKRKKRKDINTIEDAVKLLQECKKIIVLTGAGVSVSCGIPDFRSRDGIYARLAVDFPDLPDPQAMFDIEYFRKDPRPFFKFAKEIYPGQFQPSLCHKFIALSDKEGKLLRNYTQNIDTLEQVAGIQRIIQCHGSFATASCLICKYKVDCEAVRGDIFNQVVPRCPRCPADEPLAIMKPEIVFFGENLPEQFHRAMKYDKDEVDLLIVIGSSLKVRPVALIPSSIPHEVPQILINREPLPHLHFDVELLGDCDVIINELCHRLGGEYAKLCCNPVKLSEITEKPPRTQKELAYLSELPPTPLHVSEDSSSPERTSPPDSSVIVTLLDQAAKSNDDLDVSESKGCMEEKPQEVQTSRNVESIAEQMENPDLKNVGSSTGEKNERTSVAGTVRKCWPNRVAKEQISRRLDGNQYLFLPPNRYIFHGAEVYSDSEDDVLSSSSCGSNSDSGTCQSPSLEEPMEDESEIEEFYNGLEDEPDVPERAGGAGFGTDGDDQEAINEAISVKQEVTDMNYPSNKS
Put plainly: SIRT1 Fluorescent Activity Assay/Drug Discovery Kit AK-555. In kind it is biochemical. The conditions noted are these: stored under ambient conditions. The source says:
Small molecules in the form of resveratrol were obtained via ethanol extraction from Vitis vinifera and Polygonum cuspidatum. […] The extract was kept in a nitrogen environment and added to a mixture including approximately 25% by weight quercetin; 33% by weight lecithin; and 9% phytic acid (in the form of rice bran extract). […] The resulting slurry was placed into a capsule-filling machine. Individual dosages were encapsulated in gelatin capsules tinted with titanium oxide (Licaps® capsules available from Capsugel; Greenwood, S.C.; www.capsugel.com). The dosages were encapsulated in a substantially oxygen-free environment using a capsule-filling machine continually flushed with nitrogen (the Capsugel CFS 1000 Capsule Filling and Sealing Machine, available from Capsugel; Greenwood, S.C.; www.capsugel.com). […] These capsule samples were stored under ambient conditions for approximately eight months. The samples were tested for biological activity by determining whether each sample could activate sirtuin enzymes and, in particular, whether the samples stimulated SIRT1 catalytic activity. The samples were tested four months and eight months after encapsulation. Tests were performed using a SIRT1 Fluorescent Activity Assay/Drug Discovery Kit AK-555 (available from Biomol® Research Laboratories, Inc.; Plymouth Meeting, Pa.; www.biomol.com).

A further assay relates to cardiac stem cells. As to conditions: rats, cited from earlier work.

SMILES strings stand for the structures.

Regarding `O=P(O)(O)O[C@H]1[C@H](OP(=O)(O)O)[C@@H](OP(=O)(O)O)[C@H](OP(=O)(O)O)[C@@H](OP(=O)(O)O)[C@H]1OP(=O)(O)O` [IP6, (2,3,4,5,6-pentaphosphonooxycyclohexyl)dihydrogen phosphate], the “suppression of growth of rhabdomyosarcoma cells” value in the assay with rhabdomyosarcoma cells is 50%. Moreover, the “survival of mice with injected fibrosarcoma cells” value in the assay with fibrosarcoma cells was “prolong their survival”. Also, the “growth of injected fibrosarcoma cells” value in the assay on fibrosarcoma cells (mice) is recorded as “reduce the growth”. The “tumor size versus non-treated mice” value in the assay with injected tumors is listed as 50 times smaller.
In the case of `O=c1c(O)c(-c2ccc(O)c(O)c2)oc2cc(O)cc(O)c12` [quercetin], the “biological activity of encapsulated quercetin (ability to stimulate SIRT1 activity compared to when no quercetin is present)” value at SIRT1 is on record as “maintained biological activity”.
As for `Oc1ccc(/C=C/c2cc(O)cc(O)c2)cc1` [resveratrol, 3,4′,5-trihydroxy-trans-stilbene], the “cardiac functional parameters (left ventricular ejection fraction, fractional shortening)” value in the assay with cardiac stem cells (low dose (2.5 mg per kilogram) for two weeks prior to injection of cardiac stem cells) is on record as “significantly improved”. In the assay with cardiac stem cells (low dose for two weeks prior to injection of cardiac stem cells), the “stem cell survival and proliferation” value was “enhanced stem cell survival and proliferation”.
